Test results from publication PMC12298351, “Novel 3,19-(N-Phenyl-3-(4-fluorophenyl)-pyrazole) Acetal of Andrographolide Promotes Cell Cycle Arrest and Apoptosis in MDA-MB-231 Breast Cancer Cells” (Pharmaceuticals, 2025).

Tests used:
SNB-75 = details: SNB-75, CNS; for CC50: read-out: 50% lethal concentration (LC50)
A498 = details: A498, Renal; for CC50: read-out: 50% lethal concentration (LC50)
NCI/ADR-RES = details: Ovarian
HOP-92 = details: for Total growth inhibition (TGI) / CC50: HOP-92, Non-Small Cell Lung; for GI50: HOP-92, Non-Small-Cell Lung; for CC50: read-out: 50% lethal concentration (LC50)
RXF 393 = details: RXF 393, Renal; for CC50: read-out: 50% lethal concentration (LC50)
SF-539 = details: SF-539, CNS; for CC50: read-out: 50% lethal concentration (LC50)
NCI-H522 = details: for Total growth inhibition (TGI) / CC50: NCI-H522, Non-Small Cell Lung; for GI50: NCI-H522, Non-Small-Cell Lung; for CC50: read-out: 50% lethal concentration (LC50)
UACC-62 = details: UACC-62, Melanoma; for CC50: read-out: 50% lethal concentration (LC50)
A549/ATCC = details: for Total growth inhibition (TGI): Non-Small Cell Lung; for GI50: Non-Small-Cell Lung; for CC50: read-out: 50% lethal concentration (LC50), Non-Small Cell Lung
UO-31 = details: UO-31, Renal; for CC50: read-out: 50% lethal concentration (LC50)
DU-145 = details: DU-145, Prostate
OVCAR-8 = details: OVCAR-8, Ovarian; for CC50: read-out: 50% lethal concentration (LC50)
MALME-3M = details: for GI50 / Total growth inhibition (TGI): Melanoma
SR = details: for GI50 / Total growth inhibition (TGI): Leukemia; for CC50: read-out: 50% lethal concentration (LC50), Leukemia
SK-MEL-28 = details: SK-MEL-28, Melanoma; for CC50: read-out: 50% lethal concentration (LC50)
MDA-MB-435 = details: MDA-MB-435, Melanoma; for CC50: read-out: 50% lethal concentration (LC50)
ACHN = details: for GI50 / Total growth inhibition (TGI): Renal; for CC50: read-out: 50% lethal concentration (LC50), Renal
HS 578T = details: for GI50 / Total growth inhibition (TGI): Breast; for CC50: read-out: 50% lethal concentration (LC50), Breast
786-0 = details: 786-0, Renal; for CC50: read-out: 50% lethal concentration (LC50)
MCF7 = details: MCF7, Breast; for CC50: read-out: 50% lethal concentration (LC50)
HCT-116 = assay type: cell-based; details: HCT-116, Colon; for CC50: read-out: 50% lethal concentration (LC50)
NCI-H226 = details: for Total growth inhibition (TGI) / CC50: NCI-H226, Non-Small Cell Lung; for GI50: NCI-H226, Non-Small-Cell Lung; for CC50: read-out: 50% lethal concentration (LC50)
CCRF-CEM = details: for CC50: read-out: 50% lethal concentration (LC50), Leukemia
NCI-H460 = details: for Total growth inhibition (TGI) / CC50: NCI-H460, Non-Small Cell Lung; for GI50: NCI-H460, Non-Small-Cell Lung; for CC50: read-out: 50% lethal concentration (LC50)
[1] = DPPH radical scavenging assay; details: 25 µM test compound, 0.1 mM DPPH, acetonitrile, 30 min
Summary of the method: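 Compounds at 25 µM in acetonitrile mixed 1:2 with 0.1 mM DPPH in acetonitrile, kept 30 min in the dark at room temperature. Absorbance read at 517 nm; % scavenging = (Ac − As)/Ac × 100, Ac being DPPH blank. Ascorbic acid positive control.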

HOP-62 = details: for Total growth inhibition (TGI) / CC50: HOP-62, Non-Small Cell Lung; for GI50: HOP-62, Non-Small-Cell Lung; for CC50: read-out: 50% lethal concentration (LC50)
HL-60(TB) = details: for CC50: read-out: 50% lethal concentration (LC50), Leukemia

## C=C1CCC2C3(C)COC(c4cn(-c5ccccc5)nc4-c4ccccc4)OC3CCC2(C)C1CC=C1C(=O)OCC1O (centres unmarked) [1a]
SNB-75
  GI50: 1.36 µM
  Total growth inhibition (TGI): 3.9 µM
  CC50: 26.5 µM
A498
  GI50: 2.34 µM
  Total growth inhibition (TGI): 6.47 µM
  CC50: 27.7 µM
NCI/ADR-RES
  GI50: 4.75 µM
  Total growth inhibition (TGI): 5.31 µM
HOP-92
  Total growth inhibition (TGI): 2.99 µM
  GI50: 1.53 µM
  CC50: 5.83 µM
RXF 393
  GI50: 1.4 µM
  Total growth inhibition (TGI): 2.84 µM
  CC50: 5.76 µM
SF-539
  GI50: 1.84 µM
  Total growth inhibition (TGI): 3.26 µM
  CC50: 5.77 µM
NCI-H522
  Total growth inhibition (TGI): 3.86 µM
  GI50: 1.9 µM
  CC50: 7.85 µM
UACC-62
  GI50: 1.65 µM
  Total growth inhibition (TGI): 3.2 µM
  CC50: 6.22 µM
A549/ATCC
  Total growth inhibition (TGI): 7.11 µM
  GI50: 2.49 µM
  CC50: > 100 µM
UO-31
  GI50: 1.35 µM
  Total growth inhibition (TGI): 2.69 µM
  CC50: 5.36 µM
DU-145
  GI50: 2.05 µM
  Total growth inhibition (TGI): 4.16 µM
OVCAR-8
  GI50: 1.81 µM
  Total growth inhibition (TGI): 4.02 µM
  CC50: > 100 µM
MALME-3M
  GI50: 1.73 µM
  Total growth inhibition (TGI): 3.18 µM
MALME-3M; read-out: 50% lethal concentration (LC50), Melanoma
  CC50: 5.88 µM
SR
  GI50: 3.79 µM
  Total growth inhibition (TGI): > 100 µM
  CC50: > 100 µM
SK-MEL-28
  GI50: 1.77 µM
  Total growth inhibition (TGI): 3.38 µM
  CC50: 6.45 µM
MDA-MB-435
  GI50: 1.86 µM
  Total growth inhibition (TGI): 4.19 µM
  CC50: 9.43 µM
ACHN
  GI50: 1.64 µM
  Total growth inhibition (TGI): 3.05 µM
  CC50: 5.67 µM
HS 578T
  GI50: 2.31 µM
  Total growth inhibition (TGI): 6.54 µM
  CC50: > 100 µM
786-0
  GI50: 2.03 µM
  Total growth inhibition (TGI): 4.47 µM
  CC50: 9.83 µM
MCF7
  GI50: 2 µM
  Total growth inhibition (TGI): 9.09 µM
  CC50: > 100 µM
HCT-116
  GI50: 1.61 µM
  Total growth inhibition (TGI): 3.55 µM
  CC50: 7.83 µM
NCI-H226
  Total growth inhibition (TGI): 4.31 µM
  GI50: 1.95 µM
  CC50: 9.55 µM
CCRF-CEM; Leukemia
  GI50: 0.59 µM
  Total growth inhibition (TGI): 3.37 µM
CCRF-CEM
  CC50: > 100 µM
NCI-H460
  Total growth inhibition (TGI): 3.35 µM
  GI50: 1.66 µM
  CC50: 6.74 µM
[1]
  % DPPH radical scavenging activity: 58.66%
HOP-62
  Total growth inhibition (TGI): 3.84 µM
  GI50: 1.87 µM
  CC50: 7.89 µM
HL-60(TB); Leukemia
  GI50: 2.32 µM
  Total growth inhibition (TGI): 7.4 µM
HL-60(TB)
  CC50: > 100 µM

## C=C1CCC2C3(C)COC(c4cn(-c5ccccc5)nc4-c4ccc(Br)cc4)OC3CCC2(C)C1CC=C1C(=O)OCC1O (centres unmarked) [1h]
SNB-75
  GI50: 1.51 µM
  Total growth inhibition (TGI): 2.91 µM
  CC50: 5.75 µM
A498
  GI50: 4.35 µM
  Total growth inhibition (TGI): 1.66 µM
  CC50: 53.6 µM
NCI/ADR-RES
  GI50: 1.83 µM
  Total growth inhibition (TGI): 4.19 µM
HOP-92
  Total growth inhibition (TGI): 2.92 µM
  GI50: 1.38 µM
  CC50: 6.2 µM
RXF 393
  GI50: 1.71 µM
  Total growth inhibition (TGI): 3.23 µM
  CC50: 6.11 µM
SF-539
  GI50: 1.76 µM
  Total growth inhibition (TGI): 3.18 µM
  CC50: 5.73 µM
NCI-H522
  Total growth inhibition (TGI): 3.37 µM
  GI50: 1.69 µM
  CC50: 6.68 µM
UACC-62
  GI50: 1.58 µM
  Total growth inhibition (TGI): 3.13 µM
  CC50: 6.2 µM
A549/ATCC
  Total growth inhibition (TGI): 51.6 µM
  GI50: 3.1 µM
  CC50: > 100 µM
UO-31
  GI50: 2.07 µM
  Total growth inhibition (TGI): 2.52 µM
  CC50: 5.34 µM
DU-145
  GI50: 1.77 µM
  Total growth inhibition (TGI): 3.59 µM
DU-145; read-out: 50% lethal concentration (LC50)
  CC50: 7.28 µM
OVCAR-8
  GI50: 1.55 µM
  Total growth inhibition (TGI): 3.4 µM
  CC50: 7.45 µM
MALME-3M
  GI50: 1.6 µM
  Total growth inhibition (TGI): 3.11 µM
SR
  GI50: 1.69 µM
  Total growth inhibition (TGI): 8.13 µM
  CC50: > 100 µM
SK-MEL-28
  GI50: 1.73 µM
  Total growth inhibition (TGI): 3.3 µM
  CC50: 6.3 µM
MDA-MB-435
  GI50: 1.67 µM
  Total growth inhibition (TGI): 3.34 µM
  CC50: 6.67 µM
ACHN
  GI50: 2.07 µM
  Total growth inhibition (TGI): 4.78 µM
  CC50: > 100 µM
HS 578T
  GI50: 1.52 µM
  Total growth inhibition (TGI): 3.01 µM
  CC50: 5.94 µM
786-0
  GI50: 2.07 µM
  Total growth inhibition (TGI): 4.49 µM
  CC50: 9.76 µM
MCF7
  GI50: 1.49 µM
  Total growth inhibition (TGI): 4.81 µM
  CC50: 72 µM
HCT-116
  GI50: 0.94 µM
  Total growth inhibition (TGI): 2.48 µM
  CC50: 6.3 µM
NCI-H226
  Total growth inhibition (TGI): 2.8 µM
  GI50: 1.36 µM
  CC50: 5.77 µM
CCRF-CEM; Leukemia
  GI50: 0.48 µM
CCRF-CEM
  CC50: > 100 µM
NCI-H460
  Total growth inhibition (TGI): 3.34 µM
  GI50: 1.59 µM
  CC50: 7 µM
[1]
  % DPPH radical scavenging activity: 57.51%
HOP-62
  Total growth inhibition (TGI): 3.83 µM
  GI50: 1.8 µM
  CC50: 8.12 µM
HL-60(TB); Leukemia
  GI50: 0.67 µM
HL-60(TB)
  CC50: > 100 µM
